Reference: patent US6231887A, “Pharmaceutical composition for acidic lipophilic compounds in a form of a self-emulsifying formulation” (priority 1998, dated 2001)

Tests used:
[1] = Aqueous solubility in buffer; type: physicochemical; settings: buffer of pH 6.5 (close to the pH of the intestine), free acid
retroviral protease = settings: qualitative statement; compounds disclosed in WO 95/30670; cited from earlier work

In the case of CCC[C@@]1(CCc2ccccc2)CC(O)=C([C@H](CC)c2cccc(NS(=O)(=O)c3ccc(C(F)(F)F)cn3)c2)C(=O)O1 [compound of formula I], the solubility [1] is listed as ~1 µg/mL and the “effectiveness as an inhibitor of retroviral protease” value (retroviral protease) is listed as “especially effective”.
